Data as given in US9796733B2, “Imidazo-pyrazine derivatives useful as soluble guanylate cyclase activators” (Merck Sharp & Dohme Corp., priority 2014, dated 2017).

Key:
sGC α1/β1 heterodimer = target: T1, sGC α1/β1 heterodimer (Homo sapiens, UniProt Q02108+Q02153); assay: Cell-based sGC functional assay (CASA assay): cGMP generation in CHO-K1/sGC cells, HTRF detection; settings: for Emax: CHO-K1, percent activation relative to standard Compound A in CHO-K1/sGC cells, read-out: % Act.; for EC50: inflection point (IP) of cGMP generation in CHO-K1/sGC cells, 4P fit, activity expressed as percentage of Compound A
T1 construct: expressed in transfected cells; host or cells: CHO-K1 (clone #7, CHO-K1/sGC)
T1 sequence (Q02108 1-690): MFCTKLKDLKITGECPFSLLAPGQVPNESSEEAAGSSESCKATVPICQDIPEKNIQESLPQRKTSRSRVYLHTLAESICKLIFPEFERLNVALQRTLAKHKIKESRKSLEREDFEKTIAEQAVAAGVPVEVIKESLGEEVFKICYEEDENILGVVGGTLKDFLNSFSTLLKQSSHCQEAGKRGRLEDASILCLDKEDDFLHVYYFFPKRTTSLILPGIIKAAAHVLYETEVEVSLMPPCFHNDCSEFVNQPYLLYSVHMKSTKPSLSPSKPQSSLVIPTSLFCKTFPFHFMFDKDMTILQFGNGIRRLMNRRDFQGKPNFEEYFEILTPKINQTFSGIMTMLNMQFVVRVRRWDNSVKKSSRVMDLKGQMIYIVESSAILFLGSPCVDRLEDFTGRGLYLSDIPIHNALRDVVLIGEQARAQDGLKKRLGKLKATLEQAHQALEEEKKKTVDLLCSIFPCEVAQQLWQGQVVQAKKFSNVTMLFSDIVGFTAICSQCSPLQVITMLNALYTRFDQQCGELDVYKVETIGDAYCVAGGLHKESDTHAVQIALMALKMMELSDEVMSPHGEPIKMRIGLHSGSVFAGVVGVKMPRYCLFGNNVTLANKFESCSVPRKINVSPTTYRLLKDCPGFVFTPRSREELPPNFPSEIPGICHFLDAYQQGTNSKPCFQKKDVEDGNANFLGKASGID
T1 sequence (Q02153 1-619): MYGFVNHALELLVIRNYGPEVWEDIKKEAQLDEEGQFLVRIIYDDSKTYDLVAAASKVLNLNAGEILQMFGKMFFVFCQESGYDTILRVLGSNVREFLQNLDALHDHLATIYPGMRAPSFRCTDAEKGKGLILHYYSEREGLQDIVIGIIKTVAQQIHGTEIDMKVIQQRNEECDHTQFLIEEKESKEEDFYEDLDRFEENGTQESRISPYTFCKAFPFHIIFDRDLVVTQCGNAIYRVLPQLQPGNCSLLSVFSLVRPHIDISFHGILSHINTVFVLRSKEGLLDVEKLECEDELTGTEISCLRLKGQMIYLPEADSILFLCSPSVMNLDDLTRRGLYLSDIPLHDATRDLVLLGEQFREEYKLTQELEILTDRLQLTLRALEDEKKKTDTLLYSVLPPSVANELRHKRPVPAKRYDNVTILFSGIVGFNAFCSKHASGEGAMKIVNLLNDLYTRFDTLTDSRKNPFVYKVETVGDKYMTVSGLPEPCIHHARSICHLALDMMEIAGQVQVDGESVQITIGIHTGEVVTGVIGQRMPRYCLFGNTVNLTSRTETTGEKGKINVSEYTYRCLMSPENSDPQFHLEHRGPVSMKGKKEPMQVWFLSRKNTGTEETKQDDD
Outline: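 Stable CHO-K1/sGC cells in EBSS buffer with 5 mM MgCl2, 0.05% BSA and 0.5 mM IBMX were incubated with compound (2.5% DMSO final) ±1 μM DETA-NO for 1 hr at 37° C. cGMP was measured by HTRF. Activation is expressed as % of reference HDA Compound A maximum, with IP and max fold induction from a 4P fit.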

[1] = system: Spontaneously hypertensive rats (SHR); assay: Acute efficacy in spontaneously hypertensive rats (SHR): telemetry blood pressure lowering after a single oral dose; format: in vivo, rat
Outline: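 Male SHR carrying aortic telemetry implants (14-day recovery) received a single oral gavage of compound or vehicle (10% transcutol/20% Cremophor/70% water). Conscious blood pressure was sampled 30 s every 10 min and averaged hourly; change was taken against the prior-day vehicle baseline, reported as maximum peak SBP decrease at a given PO dose (mpk).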

Structure (SMILES) | Emax (sGC α1/β1 heterodimer) | EC50 (sGC α1/β1 heterodimer) | Maximum peak decrease of systolic blood pressure (SBP) in SHR, Cat. ([1]; P.O. 1.0 mpk) | Maximum peak decrease of systolic blood pressure (SBP) in SHR, Cat. ([1]; P.O. 3.0 mpk) | Maximum peak decrease of systolic blood pressure (SBP) in SHR, Cat. ([1]; P.O. 0.3 mpk)
CCCCc1nc(-c2nc(N)c3c(n2)NC(=O)C3(c2ccc(OC(F)(F)F)cc2)C2CC2)cn2ccnc12 (stereo not drawn) [Example 346A] | 132% | 65 nM | B (Category B=SBP in SHRs 20-40 mmHg) | – | –
CC1(c2ccccc2)C(=O)Nc2nc(-c3cn4ccnc4c(CCC(F)(F)F)n3)nc(N)c21 (stereo not drawn) [Example 188B, 4-amino-5-methyl-5-phenyl-2-(8-(3,3,3-trifluoropropyl)imidazo[1,2-a]pyrazin-6-yl)-5H-pyrrolo[2,3-d]pyrimidin-6(7H)-one] | 154% | 304 nM | – | B (Category B=SBP in SHRs 20-40 mmHg) | –
CCC1(c2ccc(Br)cc2)C(=O)Nc2nc(-c3cn4ccnc4c(CCC(F)(F)F)n3)nc(N)c21 (stereo not drawn) [Example 197A, 4-amino-5-(4-bromophenyl)-5-ethyl-2-(8-(3,3,3-trifluoropropyl)imidazo[1,2-a]pyrazin-6-yl)-5H-pyrrolo[2,3-d]pyrimidin-6(7H)-one] | 66% | 163 nM | – | B (Category B=SBP in SHRs 20-40 mmHg) | –
Nc1nc(-c2cn3ccnc3c(CCCC(F)(F)F)n2)nc2c1C(c1ccc(F)cn1)(C1CC1)C(=O)N2 (stereo not drawn) [Example 217A, 4-amino-5-cyclopropyl-5-(5-fluoropyridin-2-yl)-2-(8-(4,4,4-trifluorobutyl)imidazo[1,2-a]pyrazin-6-yl)-5H-pyrrolo[2,3-d]pyrimidin-6(7H)-one] | 82% | 288 nM | C (Category C=SBP in SHRs>40 mmHg) | – | –
CCC1(c2ccc(Cl)cc2)C(=O)Nc2nc(-c3cn4ccnc4c(CCCC(F)(F)F)n3)nc(N)c21 (stereo not drawn) [Example 209B, 4-amino-5-(4-chlorophenyl)-5-ethyl-2-(8-(4,4,4-trifluorobutyl)imidazo[1,2-a]pyrazin-6-yl)-5H-pyrrolo[2,3-d]pyrimidin-6(7H)-one] | 111% | 49 nM | – | – | B (Category B=SBP in SHRs 20-40 mmHg)
CC1(c2ccc(F)cc2)C(=O)Nc2nc(-c3cn4c(Cl)cnc4c(CCC(F)(F)C(F)(F)F)n3)nc(N)c21 (stereo not drawn) [Example 255A, 4-amino-2-(3-chloro-8-(3,3,4,4,4-pentafluorobutyl)imidazo [1,2-a]pyrazin-6-yl)-5-(4-fluorophenyl)-5-methyl-5H-pyrrolo[2,3-d]pyrimidin-6(7H)-one] | 142% | 32 nM | C (Category C=SBP in SHRs>40 mmHg) | – | –
CCCc1nc(-c2nc(N)c3c(n2)NC(=O)C3(C)c2ccc(Cl)cc2)cn2ccnc12 (single isomer, unassigned) [Example 2A, 4-Amino-5-(4-chlorophenyl)-5-methyl-2-(8-propylimidazo[1,2-a]pyrazin-6-yl)-5H-pyrrolo[2,3-d]pyrimidin-6(7H)-one] | 74% | 105 nM | C (Category C=SBP in SHRs>40 mmHg) | – | –
CC1(c2ccc(Cl)c(F)c2)C(=O)Nc2nc(-c3cn4ccnc4cn3)nc(N)c21 (stereo not drawn) [Example 140B, 4-amino-5-(4-chloro-3-fluorophenyl)-2-(imidazo[1,2-a]pyrazin-6-yl)-5-methyl-5H-pyrrolo[2,3-d]pyrimidin-6(7H)-one] | 107% | 217 nM | – | – | B (Category B=SBP in SHRs 20-40 mmHg)
CC1(c2ccc(F)cn2)C(=O)Nc2nc(-c3cn4ccnc4c(CCC(F)(F)C(F)(F)F)n3)nc(N)c21 (stereo not drawn) [Example 246B, 4-amino-5-(5-fluoropyridin-2-yl)-5-methyl-2-(8-(3,3,4,4,4-pentafluorobutyl)imidazo [1,2-a]pyrazin-6-yl)-5H-pyrrolo[2,3-d]pyrimidin-6(7H)-one] | 114% | 128 nM | B (Category B=SBP in SHRs 20-40 mmHg) | – | –
CC1(c2ccc(C(F)(F)F)cc2)C(=O)Nc2nc(-c3cn4ccnc4cn3)nc(N)c21 (stereo not drawn) [Example 143B, 4-amino-2-(imidazo[1,2-a]pyrazin-6-yl)-5-methyl-5-(4-(trifluoromethyl)phenyl)-5H-pyrrolo[2,3-d]pyrimidin-6(7H)-one] | 78% | 252 nM | – | B (Category B=SBP in SHRs 20-40 mmHg) | –
Nc1nc(-c2cn3ccnc3c(CCC(F)(F)C(F)(F)F)n2)nc2c1C(c1ccc(Cl)cc1)(C1CC1)C(=O)N2 (stereo not drawn) [Example 235B, 4-amino-5-(4-chlorophenyl)-5-cyclopropyl-2-(8-(3,3,4,4,4-pentafluorobutyl)imidazo [1,2-a]pyrazin-6-yl)-5H-pyrrolo[2,3-d]pyrimidin-6(7H)-one] | 148% | 36 nM | – | – | B (Category B=SBP in SHRs 20-40 mmHg)
CC1(c2ccc(Br)cc2)C(=O)Nc2nc(-c3cn4ccnc4cn3)nc(N)c21 (stereo not drawn) [Example 135A, 4-amino-5-(4-bromophenyl)-2-(imidazo[1,2-a]pyrazin-6-yl)-5-methyl-5H-pyrrolo[2,3-d]pyrimidin-6(7H)-one] | 148% | 57 nM | B (Category B=SBP in SHRs 20-40 mmHg) | – | –
CC1(C)C(=O)Nc2nc(-c3cn4ccnc4c(Cc4ccccc4)n3)nc(N)c21 [Example 76, 4-amino-2-(8-benzylimidazo[1,2-a]pyrazin-6-yl)-5,5-dimethyl-5H-pyrrolo[2,3-d]pyrimidin-6(7H)-one] | 119% | 91 nM | B (Category B=SBP in SHRs 20-40 mmHg) | – | –
Nc1nc(-c2cn3ccnc3cn2)nc2c1C(c1ccc(Cl)c(F)c1)(C1CC1)C(=O)N2 (stereo not drawn) [Example 137B, 4-amino-5-(4-chloro-3-fluorophenyl)-5-cyclopropyl-2-(imidazo[1,2-a]pyrazin-6-yl)-5H-pyrrolo[2,3-d]pyrimidin-6(7H)-one] | 108% | 135 nM | B (Category B=SBP in SHRs 20-40 mmHg) | – | –
CCC1(c2ccc(Cl)c(F)c2)C(=O)Nc2nc(-c3cn4ccnc4c(CCC(F)(F)F)n3)nc(N)c21 (stereo not drawn) [Example 199A, 4-amino-5-(4-chloro-3-fluorophenyl)-5-ethyl-2-(8-(3,3,3-trifluoropropyl)imidazo[1,2-a]pyrazin-6-yl)-5H-pyrrolo[2,3-d]pyrimidin-6(7H)-one] | 101% | 544 nM | – | B (Category B=SBP in SHRs 20-40 mmHg) | –
Nc1nc(-c2cn3ccnc3c(CCC(F)(F)F)n2)nc2c1C(c1ccc(Cl)cn1)(C1CC1)C(=O)N2 (single isomer, unassigned) [Example 331B, 4-amino-5-(5-chloropyridin-2-yl)-5-cyclopropyl-2-(8-(3,3,3-trifluoropropyl)imidazo[1,2-a]pyrazin-6-yl)-5H-pyrrolo[2,3-d]pyrimidin-6(7H)-one] | 157% | 1310 nM | – | B (Category B=SBP in SHRs 20-40 mmHg) | –
CCC1(C2CC2)C(=O)Nc2nc(-c3cn4ccnc4c(CCC(F)(F)C(F)(F)F)n3)nc(N)c21 (stereo not drawn) [Example 86B, 4-amino-5-cyclopropyl-5-ethyl-2-(8-(3,3,4,4,4-pentafluorobutyl)imidazo [1,2-a]pyrazin-6-yl)-5H-pyrrolo[2,3-d]pyrimidin-6(7H)-one] | 102% | 201 nM | – | A (Category A=SBP in SHRs<20 mmHg) | –
